pIC50: −log10 of the molar value. Read-outs that look alike come from different tables or passages of the source. Where only a bound is given, the exact number is not on record here.

Holding throughout (format): cell-based
Assay [1] concerns CAL-120 human breast adenocarcinoma cells. The assay can be described thus: Proliferation assay CAL-120 (crystal violet). As to conditions: CAL-120 cells, 4 days, median, read-out: Prolif-CAL-120— IC50 - [mol/l] (median). As for the experimental part:
(§1) 4. Proliferation assay: MDA-MB-231, CAL-120
(§2) Human tumour cells were originally obtained from the American Type Culture Collection (ATCC), or from the Deutsche Sammlung von Mikroorganismen and Zellkulturen (DSMZ, German Collection of Microorganisms and Cell Cultures). Cultivated tumour cells (CAL-120, human breast adenocarcinoma cells, DSMZ ACC-459; MDA-M B-231, human breast cancer cells, ATCC HTB-26) were plated at a density of 4,000 cells/well in a 96-well multititer plate in 200 microL of their respective growth medium supplemented 10% fetal calf serum. After 24 hours, the cells of one plate (zero-point plate) were stained with crystal violet (see below), while the medium of the other plates was supplemented with the test substances in various concentrations (0 micromol/L, as well as in the range of 0.01-10 micromol/L; the final concentration of the solvent dimethyl sulfoxide was adjusted to 0.1%) using a Tecan HP D300 Digital Dispenser. The cells were incubated for 4 days in the presence of test substances. Cell proliferation was determined by staining the cells with crystal violet: the cells were fixed by adding 20 microL/measuring point of an 11% glutaric aldehyde solution for 15 minutes at room temperature. After three washing cycles of the fixed cells with water, the plates were dried at room temperature. The cells were stained by adding 100 microL/measuring point of a 0.1% crystal violet solution (pH 3.0). After three washing cycles of the stained cells with water, the plates were dried at room temperature. The dye was dissolved by adding 100 microL/measuring point of a 10% acetic acid solution. The extinction was determined by photometry at a wavelength of 595 nm. The change of cell number, in percent, was calculated by normalization of the measured values to the extinction values of the zero-point plate(=0%) and the extinction of the untreated (0 μM) cells(=100%). The IC50 values (inhibitory concentration at 50% of maximal effect) were determined by means of a 4 parameter fit.

The target of another assay is T1, CDK12 (Homo sapiens, UniProt Q9NYV4).
T1 construct: endogenous in cells; host or cells: CAL-120 human breast cancer cells (DSMZ ACC 459)
The assay can be described thus: CDK12 nuclear protein level: immunofluorescence/high content analysis in CAL-120 cells. The note with it: for DC50: CAL-120 cells, 24 h, nuclear CDK12 staining intensity, median, read-out: CDK12 degradation IF DC50 - [mol/l] (median); for (IC50 CDK12 high ATP) to (Degradation DC50 CDK12) ratio: ratio of IC50 CDK12 hATP (2 mM ATP) to DC50 CDK12 (IF, CAL-120). How it is done: 6. CDK12 Nuclear Protein Level: Immunofluorescence/High Content Analysis
In the context of the present invention, the term “DC50 CDK12” refers to the DC50 values obtained according to the assay described in this section (6) herein below, i.e. the DC50 values for the degradation of CDK12.:
CAL-120 human breast cancer cells (DSMZ ACC 459) are seeded in 1536-well microtiter plates (800 cells per well) containing 50 nanoL of compounds in Dose-Response. Control wells received DMSO or Reference Example 1. Plates are then incubated for 24 h at 37° C. in an humidified incubator and fixed with 4% PFA for 10 min. Then immunofluorescence (IF) against CDK12 (CellSignalling CDK12 Antibody #11973, rabbit, 1:100 dilution) is performed using standard IF protocols. Cells are then stained with Hoechst 33342 (Life Technologies, H-1399, 0.1 microg/mL) and imaged on an automated confocal microscopy system (e.g. Perkin Elmer Opera Phenix). Nuclear and cytoplasmic intensity as well as the nuclear/cytoplasmic intensity ratio is determined by automated image analysis using custom generated scripts (MetaXpress). Data is then transferred to Genedata Screener software, normalized to DMSO and control and DC50 values (degrading concentration to achieve 50% reduction of nuclear CDK12 staining intensity relative to controls) are reported.

Assay [2] deals with MDA-MB-231 human breast cancer cells. Briefly: Proliferation assay MDA-MB-231 (crystal violet). As to conditions: MDA-MB-231 cells, 4 days, median, read-out: Prolif-MDA MB231 IC50 - [mol/l] (median). How it is done:
as §1, §2

T1 sequence (Q9NYV4 whole entry): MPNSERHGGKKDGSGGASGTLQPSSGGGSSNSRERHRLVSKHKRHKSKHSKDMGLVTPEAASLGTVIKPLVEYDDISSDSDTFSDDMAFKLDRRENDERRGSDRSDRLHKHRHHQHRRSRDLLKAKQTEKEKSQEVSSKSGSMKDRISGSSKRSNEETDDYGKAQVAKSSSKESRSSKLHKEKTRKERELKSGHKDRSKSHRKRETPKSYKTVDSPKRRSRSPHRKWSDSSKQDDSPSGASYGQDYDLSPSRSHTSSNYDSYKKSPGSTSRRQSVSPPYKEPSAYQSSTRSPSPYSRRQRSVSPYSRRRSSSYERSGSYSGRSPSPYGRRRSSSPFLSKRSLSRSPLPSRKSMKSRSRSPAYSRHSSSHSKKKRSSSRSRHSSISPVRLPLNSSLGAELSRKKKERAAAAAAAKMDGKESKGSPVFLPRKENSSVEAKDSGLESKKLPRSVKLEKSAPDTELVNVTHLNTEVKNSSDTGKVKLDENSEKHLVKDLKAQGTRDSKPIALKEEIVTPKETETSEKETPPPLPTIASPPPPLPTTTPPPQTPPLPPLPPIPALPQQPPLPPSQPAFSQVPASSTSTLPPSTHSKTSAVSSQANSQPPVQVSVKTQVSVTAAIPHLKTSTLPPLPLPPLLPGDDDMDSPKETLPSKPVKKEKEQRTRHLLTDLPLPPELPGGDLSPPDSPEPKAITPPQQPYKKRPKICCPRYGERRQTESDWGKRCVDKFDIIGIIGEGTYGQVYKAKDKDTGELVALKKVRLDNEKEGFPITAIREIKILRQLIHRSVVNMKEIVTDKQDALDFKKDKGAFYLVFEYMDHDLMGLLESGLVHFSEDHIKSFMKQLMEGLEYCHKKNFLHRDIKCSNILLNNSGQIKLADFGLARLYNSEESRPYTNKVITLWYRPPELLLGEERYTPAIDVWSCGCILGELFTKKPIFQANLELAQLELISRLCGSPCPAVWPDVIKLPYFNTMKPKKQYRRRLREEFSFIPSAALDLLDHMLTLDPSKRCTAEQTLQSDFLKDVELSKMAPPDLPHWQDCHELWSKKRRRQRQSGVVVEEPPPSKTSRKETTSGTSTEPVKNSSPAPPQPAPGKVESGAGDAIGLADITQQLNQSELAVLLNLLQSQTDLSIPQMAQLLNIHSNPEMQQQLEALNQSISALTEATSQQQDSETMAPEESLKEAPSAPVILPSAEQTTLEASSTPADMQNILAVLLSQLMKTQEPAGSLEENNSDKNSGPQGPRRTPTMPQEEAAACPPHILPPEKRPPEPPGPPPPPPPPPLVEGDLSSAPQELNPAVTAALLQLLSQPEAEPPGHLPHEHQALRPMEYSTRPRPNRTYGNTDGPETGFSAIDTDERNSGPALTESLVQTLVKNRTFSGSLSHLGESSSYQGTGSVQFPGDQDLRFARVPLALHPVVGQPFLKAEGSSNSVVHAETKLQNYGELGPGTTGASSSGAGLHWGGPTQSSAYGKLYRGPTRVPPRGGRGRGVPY
T1 sequence (O75909 whole entry partner): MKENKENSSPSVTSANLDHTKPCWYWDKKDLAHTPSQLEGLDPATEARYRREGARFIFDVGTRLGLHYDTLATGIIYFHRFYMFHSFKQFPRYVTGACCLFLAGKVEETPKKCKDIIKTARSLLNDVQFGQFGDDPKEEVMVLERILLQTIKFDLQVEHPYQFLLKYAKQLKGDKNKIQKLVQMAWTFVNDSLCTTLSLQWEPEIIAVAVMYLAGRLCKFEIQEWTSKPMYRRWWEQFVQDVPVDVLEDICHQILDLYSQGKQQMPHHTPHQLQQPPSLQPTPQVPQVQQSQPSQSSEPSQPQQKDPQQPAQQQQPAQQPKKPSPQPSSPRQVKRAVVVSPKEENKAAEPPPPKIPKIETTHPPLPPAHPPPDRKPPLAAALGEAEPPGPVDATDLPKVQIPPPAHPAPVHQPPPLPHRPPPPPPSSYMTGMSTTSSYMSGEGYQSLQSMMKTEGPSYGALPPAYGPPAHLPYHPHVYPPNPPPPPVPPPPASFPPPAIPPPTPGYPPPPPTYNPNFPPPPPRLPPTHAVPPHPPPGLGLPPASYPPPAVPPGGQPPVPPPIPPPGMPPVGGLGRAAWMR

In the case of `CN1CCC(n2nc(NCc3nc4cc(Cl)c(F)cc4[nH]3)c3ncc(C4CC4)nc32)CC1` [Example 29, N-[(5-chloro-6-fluoro-1H-benzimidazol-2-yl)methyl]-6-cyclopropyl-1-(1-methylpiperidin-4-yl)-1H-pyrazolo[3,4-b]pyrazin-3-amine], the pIC50 in assay [1] (Homo sapiens, CAL-120, 96 h) is 8.01. Moreover, at CDK12, the DC50 stood at 0.0175 µM and the “(IC50 CDK12 high ATP) to (Degradation DC50 CDK12) ratio” value is on record as greater than 1145. Besides, the pIC50 in assay [2] (Homo sapiens, MDA-MB-231, 96 h) is 7.84.

Regarding `CN1CCCC(n2nc(NCc3nc4ccccc4[nH]3)c3ncc(C4CC4)nc32)CC1` (single isomer, unassigned) [Example 38, (−) or (+)-N-[(1H-benzimidazol-2-yl)methyl]-6-cyclopropyl-1-[(4R*)-1-methylazepan-4-yl]-1H-pyrazolo[3,4-b]pyrazin-3-amine], the pIC50 in assay [1] was 8.01. For the same compound, at CDK12, the DC50 was 0.0132 µM and the “(IC50 CDK12 high ATP) to (Degradation DC50 CDK12) ratio” value is reported as greater than 1516. Further, the pIC50 in assay [2] was 7.33.

Take `Cc1ccc2[nH]c(CNc3nn(C4CCN(C)CC4)c4nc(C5CC5)cnc34)nc2c1C` [Example 28, 6-cyclopropyl-N-[(4,5-dimethyl-1H-benzimidazol-2-yl)methyl]-1-(1-methylpiperidin-4-yl)-1H-pyrazolo[3,4-b]pyrazin-3-amine]: the pIC50 in assay [1] (Homo sapiens, CAL-120, 96 h) is 8.02. Also, on CDK12, the DC50 came to 0.0106 µM and the “(IC50 CDK12 high ATP) to (Degradation DC50 CDK12) ratio” value is greater than 1880. In assay [2] (Homo sapiens, MDA-MB-231, 96 h), the pIC50 was 7.70.

On to `CN1CCC(n2nc(NCc3nc4c(Br)cccc4[nH]3)c3ncc(C4CC4)nc32)CC1` [Example 20, N-[(4-bromo-1H-benzimidazol-2-yl)methyl]-6-cyclopropyl-1-(1-methylpiperidin-4-yl)-1H-pyrazolo[3,4-b]pyrazin-3-amine], for which, in assay [1] (Homo sapiens, CAL-120, 96 h), the pIC50 is 8.14. Further, at CDK12, the DC50 stood at 0.0222 µM and the “(IC50 CDK12 high ATP) to (Degradation DC50 CDK12) ratio” value is recorded as greater than 1050. The pIC50 in assay [2] (Homo sapiens, MDA-MB-231, 96 h) was 7.84.

Consider `Cn1nc(NCc2nc3ccccc3[nH]2)c2ncc(C3CC3)nc21` [Example 15, N-[(1H-benzimidazol-2-yl)methyl]-6-cyclopropyl-1-methyl-1H-pyrazolo[3,4-b]pyrazin-3-amine], for which, at CDK12, the DC50 stood at 0.155 µM and the “(IC50 CDK12 high ATP) to (Degradation DC50 CDK12) ratio” value is greater than 129.

As for `Fc1cccc2[nH]c(CNc3nn(C4CCOCC4)c4nc(C5CC5)cnc34)nc12` [Example 23, 6-cyclopropyl-N-[(4-fluoro-1H-benzimidazol-2-yl)methyl]-1-(oxan-4-yl)-1H-pyrazolo[3,4-b]pyrazin-3-amine], the pIC50 in assay [1] (Homo sapiens, CAL-120, 96 h) was 7.81. Moreover, at CDK12, the DC50 came to 0.0317 µM and the “(IC50 CDK12 high ATP) to (Degradation DC50 CDK12) ratio” value amounted to 388. Further, the pIC50 in assay [2] (Homo sapiens, MDA-MB-231, 96 h) was 7.54.

Regarding `Cc1c(Cl)ccc2[nH]c(CNc3nn(C4CCN(C)CC4)c4nc(C5CC5)cnc34)nc12` [Example 21, N-[(5-chloro-4-methyl-1H-benzimidazol-2-yl)methyl]-6-cyclopropyl-1-(1-methylpiperidin-4-yl)-1H-pyrazolo[3,4-b]pyrazin-3-amine], the pIC50 in assay [1] (Homo sapiens, CAL-120, 96 h) is 8.10. Moreover, on CDK12, the DC50 worked out at 0.0287 µM and the “(IC50 CDK12 high ATP) to (Degradation DC50 CDK12) ratio” value is greater than 697. Moreover, the pIC50 in assay [2] (Homo sapiens, MDA-MB-231, 96 h) is 7.95.

For `CN1CCCC(n2nc(NCc3nc4ccccc4[nH]3)c3ncc(C4CC4)nc32)CC1` (racemic) [Example 34, (±)-N-[(1H-benzimidazol-2-yl)methyl]-6-cyclopropyl-1-(1-methylazepan-4-yl)-1H-pyrazolo[3,4-b]pyrazin-3-amine], the pIC50 in assay [1] (Homo sapiens, CAL-120, 96 h) was 8.11; in assay [2] (Homo sapiens, MDA-MB-231, 96 h) it was 7.41. The DC50 on CDK12 is 0.0142 µM.

With `Cc1cccc2[nH]c(CNc3nn(C4CCOCC4)c4nc(C5CC5)cnc34)nc12` [Example 33, 6-cyclopropyl-N-[(4-methyl-1H-benzimidazol-2-yl)methyl]-1-(oxan-4-yl)-1H-pyrazolo[3,4-b]pyrazin-3-amine], the pIC50 in assay [1] (Homo sapiens, CAL-120, 96 h) is 7.65. In addition, on CDK12, the DC50 was 0.00865 µM and the “(IC50 CDK12 high ATP) to (Degradation DC50 CDK12) ratio” value was greater than 2312. Besides, the pIC50 in assay [2] (Homo sapiens, MDA-MB-231, 96 h) was 7.43.

For `CC(CCN(C)C)n1nc(NCc2nc3ccccc3[nH]2)c2ncc(C3CC3)nc21` (single isomer, unassigned) [Example 64, (−) or(+)-N-[(1H-benzimidazol-2-yl)methyl]-6-cyclopropyl-1-[4-(dimethylamino)butan-2-yl]-1H-pyrazolo[3,4-b]pyrazin-3-amine], the pIC50 is 6.53 in assay [1] and 6.27 in assay [2]. Further, the DC50 on CDK12 was 0.0826 µM. Moreover, on CDK12, the “(IC50 CDK12 high ATP) to (Degradation DC50 CDK12) ratio” value was greater than 242.

As for `COCCCn1nc(NCc2nc3ccccc3[nH]2)c2ncc(C3CC3)nc21` [Example 61, N-[(1H-benzimidazol-2-yl)methyl]-6-cyclopropyl-1-(3-methoxypropyl)-1H-pyrazolo[3,4-b]pyrazin-3-amine], in assay [1] (Homo sapiens, CAL-120, 96 h), the pIC50 was 7.22. In addition, at CDK12, the DC50 was 0.163 µM and the “(IC50 CDK12 high ATP) to (Degradation DC50 CDK12) ratio” value is given as greater than 123. Further, in assay [2] (Homo sapiens, MDA-MB-231, 96 h), the pIC50 is 6.47.

Consider `COCCC(C)n1nc(NCc2nc3ccccc3[nH]2)c2ncc(C3CC3)nc21` (racemic) [Example 57, (±)-N-[(1H-benzimidazol-2-yl)methyl]-6-cyclopropyl-1-(4-methoxybutan-2-yl)-1H-pyrazolo[3,4-b]pyrazin-3-amine], for which the pIC50 in assay [1] (Homo sapiens, CAL-120, 96 h) is 6.98; in assay [2] (Homo sapiens, MDA-MB-231, 96 h), 6.62. The DC50 on CDK12 was 0.17 µM. The “(IC50 CDK12 high ATP) to (Degradation DC50 CDK12) ratio” value at CDK12 is recorded as greater than 118.

`CC(C)n1nc(NCc2nc3ccccc3[nH]2)c2ncc(C3CC3)nc21` [Example 14, N-[(1H-benzimidazol-2-yl)methyl]-6-cyclopropyl-1-(propan-2-yl)-1H-pyrazolo[3,4-b]pyrazin-3-amine]: the pIC50 in assay [1] (Homo sapiens, CAL-120, 96 h) was 7.02. Further, on CDK12, the DC50 came out at 0.0496 µM and the “(IC50 CDK12 high ATP) to (Degradation DC50 CDK12) ratio” value is greater than 403.

On to `c1ccc2[nH]c(CNc3nn(C4CCOC4)c4nc(C5CC5)cnc34)nc2c1` (single isomer, unassigned) [Example 17, (+) or (−)-N-[(1H-benzimidazol-2-yl)methyl]-6-cyclopropyl-1-(oxolan-3-yl)-1H-pyrazolo[3,4-b]pyrazin-3-amine], for which the pIC50 in assay [1] (Homo sapiens, CAL-120, 96 h) was 7.15. Also, on CDK12, the DC50 was determined as 0.0248 µM and the “(IC50 CDK12 high ATP) to (Degradation DC50 CDK12) ratio” value was greater than 807. The pIC50 in assay [2] (Homo sapiens, MDA-MB-231, 96 h) is 6.86.

As for `OCCCn1nc(NCc2nc3ccccc3[nH]2)c2ncc(C3CC3)nc21` [Example 60, 3-(3-{[(1H-benzimidazol-2-yl)methyl]amino}-6-cyclopropyl-1H-pyrazolo[3,4-b]pyrazin-1-yl)propan-1-ol], the pIC50 in assay [1] (Homo sapiens, CAL-120, 96 h) is 6.89. In addition, on CDK12, the DC50 was found to be 0.0412 µM and the “(IC50 CDK12 high ATP) to (Degradation DC50 CDK12) ratio” value is reported as greater than 102. Further, in assay [2] (Homo sapiens, MDA-MB-231, 96 h), the pIC50 was 6.63.

With `CN1CCC(n2nc(NCc3nc4cc(SC(F)(F)F)ccc4[nH]3)c3ncc(C4CC4)nc32)CC1` [Example 27, 6-cyclopropyl-1-(1-methylpiperidin-4-yl)-N-({5-[(trifluoromethyl)sulfanyl]-1H-benzimidazol-2-yl}methyl)-1H-pyrazolo[3,4-b]pyrazin-3-amine], in assay [1] (Homo sapiens, CAL-120, 96 h), the pIC50 is 6.58. In addition, at CDK12, the DC50 was found to be 0.0491 µM and the “(IC50 CDK12 high ATP) to (Degradation DC50 CDK12) ratio” value was found to be 41.

Values taken from patent publication US20230192700A1, “PYRAZOLOPYRAZINES ACTING ON CANCERS VIA INHIBITION OF CDK12” (Bayer Aktiengesellschaft, priority 2020, published 2023).
